Assay results taken from patent US12318373B2, “Methods of treating gastrointestinal stromal tumors” (Deciphera Pharmaceuticals, LLC, priority 2019, dated 2025).

Key:
[1] = Example 7: coadministration with strong CYP3A inhibitor (itraconazole), exposure; type: in vivo; details: coadministration of ripretinib with itraconazole
[2] = Example 8: coadministration with proton-pump inhibitor (pantoprazole), exposure; type: in vivo; details: ripretinib coadministered with pantoprazole
Method: The effect of a proton-pump inhibitor on the exposure of ripretinib was evaluated.

[3] = Example 9: food effect (high-fat meal) on exposure; type: in vivo; details: 150 mg dose with a high-fat meal
Method: The effect of a high-fat breakfast on ripretinib and Compound A exposure was evaluated. A high fat meal consisted of approximately 150, 250, and 500-600 calories from protein, carbohydrate, and fat, respectively. […] Therefore, ripretinib may be taken with or without food at approximately same time each day.

[4] = system: GIST with KIT exon 11 primary mutations; details: cited from earlier work

| Increase in AUC0-inf [1] | Increase in Cmax [1] | Difference in plasma exposure [2] | AUC0-24h higher by [3] | Cmax higher by [3] | Structure (SMILES) | 2-year relapse-free survival ([4]; adjuvant setting) | Median event-free survival ([4]; metastatic setting) |
| --- | --- | --- | --- | --- | --- | --- | --- |
| 99% | no change | No clinically significant differences | 47% | 66% | CCn1c(=O)c(-c2cc(NC(=O)Nc3ccccc3)c(F)cc2Br)cc2cnc(N)cc21 [Compound A] | – | – |
| – | – | – | – | – | Cc1ccc(NC(=O)c2ccc(CN3CCN(C)CC3)cc2)cc1Nc1nccc(-c2cccnc2)n1 [imatinib] | ~90% | under 2 years |
